Values joined by “and” are separate entries in the source; they are usually repeats but may differ in a detail not shown here. Identical values can stand only once. “Also recorded” adds a separate entry of the source. Where no end group is shown, it is not given here.
Assays:
[1] = target: T1, bacteriophage λ Integrase (Int) (Escherichia phage lambda, UniProt P03700); test: Int-mediated bent-L recombination; format: biochemical; conditions: for rank of potency at inhibiting recombination among individual peptides: FIG. 6A
T1 sequence (P03700 1-356): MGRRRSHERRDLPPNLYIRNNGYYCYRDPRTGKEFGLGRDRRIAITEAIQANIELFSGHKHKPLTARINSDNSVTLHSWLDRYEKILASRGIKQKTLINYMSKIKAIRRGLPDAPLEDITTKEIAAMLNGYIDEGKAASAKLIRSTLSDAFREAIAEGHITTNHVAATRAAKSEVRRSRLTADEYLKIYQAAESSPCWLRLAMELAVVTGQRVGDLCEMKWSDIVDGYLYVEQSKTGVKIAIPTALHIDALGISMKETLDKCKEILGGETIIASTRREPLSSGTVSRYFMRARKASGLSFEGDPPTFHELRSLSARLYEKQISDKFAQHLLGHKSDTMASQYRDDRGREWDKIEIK
T1 sequence (P0A6X7 1-99 partner): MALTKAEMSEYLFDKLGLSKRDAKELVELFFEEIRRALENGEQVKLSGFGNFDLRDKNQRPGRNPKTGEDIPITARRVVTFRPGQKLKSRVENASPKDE
T1 sequence (P0A6Y1 1-94 partner): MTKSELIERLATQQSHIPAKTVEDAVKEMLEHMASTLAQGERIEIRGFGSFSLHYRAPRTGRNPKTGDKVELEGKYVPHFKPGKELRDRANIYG
Method: Recombination Assays. Recombination assays were performed as described (Segall, 1998). Briefly, reactions were performed in a total volume of 10 μl and typically contained 1 nM radiolabeled att site as specified, 4 nM unlabeled att site, 50 ng salmon sperm DNA as nonspecific competitor, 44 mM Tris-Cl (pH 8.0), 60 mM KCl, 0.05 mg/ml bovine serum albumin, 7-11 mM Tris borate (pH 8.9), 5 mM spermidine, 1.3 mM EDTA, and 14.6% v/v glycerol. Int and IHF were present at 55 nM and 35 nM final concentrations respectively. During screening, peptide libraries were incubated with Int on ice for 20 minutes (in the same buffer), and the mix was then added to the rest of the recombination reaction. Final concentrations of peptides are specified for each experiment. Reactions were incubated for 60-90 minutes at 30° C. or 37° C., were stopped with 0.2× volume of 2% SDS, layered onto 5% polyacrylamide Tris/SDS gels, and electrophoresed in 1× Tris Tricine SDS buffer at 100 mA (Segall, 1998). Dried gels were visualized and quantitated using a Molecular Dynamics PhosphorImager.
Int Assays. Site-specific recombination and gel mobility shift assays were performed as described (Segall, 1998). Briefly, reactions were performed in a total volume of 10 or 20 μl and typically contained 1-2 nM radiolabeled att site as specified, 4 nM unlabeled att site, 100-300 ng salmon sperm DNA as nonspecific competitor, 44 mM Tris-Ci (pH 8.0), 60 mM KCl, 0.05 mg/ml bovine serum albumin, 7 mM Tris borate (pH 8.9), 5 mM spermidine, 1.3 mM EDTA, and 14.6% v/v glycerol. Any deviation from this formulation is noted in the figure legends. Gel shift reactions were incubated for 90 minutes at 37° C., layered without loading dyes onto 5% native polyacrylamide gel (29 acrylamide: 1 bis-acrylamide) and electrophoresed in 0.5× Tris borate EDTA buffer. Recombination reactions were stopped with 0.2× volume of 2% SDS, layered onto 5% polyacrylamide Tris/SDS gels, and electrophoresed in 1× Tris Tricine SDS buffer at 100 mA (Segall, 1998). Dried gels were visualized and quantitated using a Molecular Dynamics PhosphorImager. […]

[2] = target: T2, Vaccinia topoisomerase (type Ib) (Vaccinia virus, UniProt P68698); test: biochemical; conditions: for IC50: IC50 for plasmid relaxation (activity reduced by one-half), pUC19 DNA
T2 construct: made in house; host or cells: Escherichia coli BL21 infected with bacteriophage λCE6

[3] = target: T3, E. coli topoisomerase I (type Ia) (Escherichia coli, UniProt P06612); test: biochemical; conditions: for IC50: IC50, DNA relaxation (activity reduced by one-half), supercoiled DNA
T3 sequence (P06612 1-865): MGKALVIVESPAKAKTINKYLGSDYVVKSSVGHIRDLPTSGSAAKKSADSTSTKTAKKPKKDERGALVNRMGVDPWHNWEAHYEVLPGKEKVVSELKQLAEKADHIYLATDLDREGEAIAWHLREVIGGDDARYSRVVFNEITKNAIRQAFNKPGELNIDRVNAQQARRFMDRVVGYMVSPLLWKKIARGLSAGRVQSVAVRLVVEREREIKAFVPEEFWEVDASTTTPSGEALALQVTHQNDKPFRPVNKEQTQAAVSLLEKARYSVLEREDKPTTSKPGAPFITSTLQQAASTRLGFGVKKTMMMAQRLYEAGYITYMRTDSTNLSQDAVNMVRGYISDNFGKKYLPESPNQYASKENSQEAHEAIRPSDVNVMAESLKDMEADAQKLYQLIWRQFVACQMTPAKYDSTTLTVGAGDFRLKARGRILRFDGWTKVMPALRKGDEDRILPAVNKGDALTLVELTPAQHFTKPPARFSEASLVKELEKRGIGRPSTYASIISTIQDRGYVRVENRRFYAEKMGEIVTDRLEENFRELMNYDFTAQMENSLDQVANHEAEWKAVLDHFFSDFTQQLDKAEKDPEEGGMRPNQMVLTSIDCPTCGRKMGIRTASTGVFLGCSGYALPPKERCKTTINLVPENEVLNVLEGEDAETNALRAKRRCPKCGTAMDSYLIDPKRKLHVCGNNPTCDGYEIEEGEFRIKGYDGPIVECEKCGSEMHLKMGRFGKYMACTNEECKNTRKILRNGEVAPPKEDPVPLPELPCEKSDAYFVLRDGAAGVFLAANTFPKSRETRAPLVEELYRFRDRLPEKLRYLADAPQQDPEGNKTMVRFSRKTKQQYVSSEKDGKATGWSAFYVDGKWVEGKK
Description: E. coli topoisomerase I (TopA) exemplifies the type IA topoisomerase family. Type IA enzymes are mechanistically and structurally unrelated to the topoisomerase IB/tyrosine recombinase superfamily of DNA strand transferases.

[4] = IC50, inhibition of bent-L recombination, bent-L pathway
[5] = peptide concentrations up to 42 μM

Row | Substance | IC50 [1, 4] | rank of potency at inhibiting recombination among individual peptides ([1]; dose response curves) | IC50 [2] | IC50 [3] | effect on recombination ([1]; 1 μM peptide) | effect on recombination ([1]; 10 μM peptide) | EC50 [1] | effect on recombination ([1]; 100 μM, the highest peptide concentration tested) | IC50 ([1]; IC50, accumulation of Holliday junctions, bent-L pathway) | peptide concentration at which the most HJs accumulate ([1]; bent-L pathway) | rank of potency at causing the accumulation of HJs among individual peptides ([1]; dose response curves, FIG. 6B) | effect on DNA relaxation [2, 5] | effect on DNA relaxation [3, 5]
1 | KWWWRW-NH2 [Peptide 56, KWWWRW] | ~40 nM | most potent at inhibiting recombination | 3 to 4 µM | 7 to 10 µM | – | – | – | – | – | – | – | – | –
2 | KWWCRW-NH2 [Peptide 59, KWWCRW] | < 100 nM and 20 nM | most potent at inhibiting recombination | 3.5 µM | 8 µM | almost complete block on recombination | inhibited completely | – | – | – | – | – | – | –
3 | WKHYNY-NH2 [Peptide 52, WKHYNY] | – | – | – | – | – | – | 200 to 400 nM | does not inhibit it completely; also recorded: does not inhibit recombination completely | 200 nM | about 2 μM | most potent at causing the accumulation of HJs | no effect | no effect

Source: US20040002441A1, “Recombination modulators and methods for producing and using the same” (priority 2000, published 2004)
